Source: US20150057246A1, “SILYL-CONTAINING HETEROCYCLIC COMPOUNDS AND METHODS OF USE THEREOF FOR THE TREATMENT OF VIRAL DISEASES” (priority 2012, published 2015)

Assays:
HCV 1a replicon = experiment: Cell-based HCV replicon assay (TaqMan), genotype 1a replicon; details: Hepatitis C virus, 72 h, HCV genotype 1a replicon cells, replicon RNA by real time PCR, day 3; EC90 = concentration for ΔCT=3.2 over baseline
Method: (§1) Measurement of inhibition by compounds of the present invention was performed using the HCV replicon system. Several different replicons encoding different HCV genotypes or mutations were used. In addition, potency measurements were made using different formats of the replicon assay, including different ways of measurements and different plating formats. See Jan M. Vrolijk et al., A replicons-based bioassay for the measurement of interferons in patients with chronic hepatitis C, 110 J. VIROLOGICAL METHODS 201 (2003); Steven S. Carroll et al., Inhibition of Hepatitis C Virus RNA Replication by 2′-Modified Nucleoside Analogs, 278(14) J. BIOLOGICAL CHEMISTRY 11979 (2003). However, the underlying principles are common to all of these determinations, and are outlined below.
(§2) TaqMan®-Based Assay Protocol:
(§3) Compounds of the present invention were assayed for cell-based anti-HCV activity using the following protocol. Replicon cells were seeded at 5000 cells/well in 96-well collagen I-coated Nunc plates in the presence of the test compound. Various concentrations of test compound, typically in 10 serial 2-fold dilutions, were added to the assay mixture, with the starting concentration ranging from 250 μM to 1 μM. The final concentration of DMSO was 0.5%, fetal bovine serum was 5%, in the assay media. Cells were harvested on day 3 by the addition of 1× cell lysis buffer (Ambion cat #8721). The replicon RNA level was measured using real time PCR (TaqMan® assay). The amplicon was located in 5B. The PCR primers were: 5B.2F, ATGGACAGGCGCCCTGA (SEQ. ID NO. 1); 5B.2R, […] (SEQ. ID NO. 2); the probe sequence was FAM-labeled CACGCCATGCGCTGCGG (SEQ. ID NO. 3). GAPDH RNA was used as endogenous control and was amplified in the same reaction as NS5B (multiplex PCR) using primers and VIC-labeled probe recommended by the manufacturer (PE Applied Biosystem). The real-time […] reactions were run on ABI PRISM 7900HT Sequence Detection System using the following program: 48° C. for 30 minutes, 95° C. for 10 minutes, 40 cycles of 95° C. for 15 sec, 60° C. for 1 minute. The ΔCT values (CT5B-CTGAPDH) were plotted against the concentration of test compound and fitted to the sigmoid dose-response model using XLfit4 (MDL). EC50 was defined as the concentration of inhibitor necessary to achieve ΔCT=1 over the projected baseline; EC90 the concentration necessary to achieve ΔCT=3.2 over the baseline. Alternatively, to quantitate the absolute amount of replicon RNA, a standard curve was established by including serially diluted T7 transcripts of replicon RNA in the Taqman assay. All TaqMan® reagents were from PE Applied Biosystems. Such an assay procedure was described in detail in e.g. Malcolm et al., Antimicrobial Agents and Chemotherapy 50: 1013-1020 (2006).
(§4) HCV replicon EC50 assay data for various replicons and mutants was calculated for selected compounds of the present invention using this method and is provided in the tables above herein.

HCV 1a Y93H replicon = experiment: Cell-based HCV replicon assay (TaqMan), 1a Y93H mutant replicon; details: Hepatitis C virus, 72 h, read-out: 1a Y93H EC90, HCV 1a Y93H mutant replicon cells, replicon RNA by real time PCR, day 3; EC90 = concentration for ΔCT=3.2 over baseline
Method: as §1, §2, §3, §4

HCV 2b replicon = experiment: Cell-based HCV replicon assay (TaqMan), genotype 2b replicon; details: Hepatitis C virus, 72 h, read-out: 2b EC90, HCV genotype 2b replicon cells, replicon RNA by real time PCR, day 3; EC90 = concentration for ΔCT=3.2 over baseline
Method: as §1, §2, §3, §4

Row | SMILES | EC90 (HCV 1a replicon) [nM] | EC90 (HCV 1a Y93H replicon) [nM] | EC90 (HCV 2b replicon) [nM]
1 | COC(=O)N[C@@H](CCSC)C(=O)N1C[Si](C)(C)C[C@H]1c1ncc(-c2ccc(-c3ccc4c(ccc5nc([C@@H]6CCCN6C(=O)[C@H](CCSC)NC(=O)OC)[nH]c54)c3)cc2)[nH]1 [Compound 45] | 0.85 | > 1000 | 563
2 | COC(=O)N[C@H](C(=O)N1C[Si](C)(C)C[C@H]1c1ncc(-c2ccc(-c3ccc4c(ccc5nc([C@@H]6CCCN6C(=O)[C@@H](NC(=O)OC)C6CCCOCC6)[nH]c54)c3)cc2)[nH]1)C1CCCOCC1 (stereo partly drawn) [Compound 52] | 2.3 | > 1000 | 37
3 | COC(=O)N[C@@H](CC(C)(C)C)C(=O)N1CCC[C@H]1c1ncc(-c2ccc(-c3ccc4c(ccc5nc([C@@H]6C[Si](C)(C)CN6C(=O)[C@@H](NC(=O)OC)C(C)C)[nH]c54)c3)cc2)[nH]1 [Compound 84] | 0.92 | > 1000 | 413
4 | COC(=O)N[C@@H](Cc1cn(C)cn1)C(=O)N1C[Si](C)(C)C[C@H]1c1ncc(-c2ccc(-c3ccc4c(ccc5nc([C@@H]6CCCN6C(=O)[C@H](Cc6cn(C)cn6)NC(=O)OC)[nH]c54)c3)cc2)[nH]1 [Compound 40] | 2.57 | > 1000 | > 1000
5 | COC(=O)N[C@H](C(=O)N1CCC[C@H]1c1nc(Cl)c(-c2ccc(-c3ccc4c(ccc5nc([C@@H]6C[Si](C)(C)CN6C(=O)[C@@H](NC(=O)OC)C(C)C)[nH]c54)c3)cc2)[nH]1)C(C)C [Compound 94] | 0.19 | 935 | 184
6 | COC(=O)N[C@H](C(=O)N1C[Si](C)(C)C[C@H]1c1ncc(-c2ccc(-c3ccc4c(ccc5nc([C@@H]6CCCN6C(=O)[C@@H](NC(=O)OC)C6CCCC6)[nH]c54)c3)cc2)[nH]1)C1CCCC1 [Compound 35] | 0.5 | 555 | 566
7 | COC(=O)N[C@@H](C(=O)N1C[Si](C)(C)C[C@H]1c1ncc(-c2ccc(-c3ccc4c(ccc5nc([C@@H]6CCCN6C(=O)[C@H](NC(=O)OC)C6CC6)[nH]c54)c3)cc2)[nH]1)C1CC1 [Compound 50] | > 1000 | > 1000 | > 1000
8 | COC(=O)N[C@H](C(=O)N1CCC[C@H]1c1ncc(-c2ccc(-c3ccc4c(ccc5nc([C@@H]6C[Si](C)(C)CN6C(=O)[C@@H](NC(=O)OC)[C@@H](C)OC)[nH]c54)c3)cc2)[nH]1)C(C)C [Compound 60] | 0.21 | > 1000 | 52.8
9 | COC(=O)N[C@@H](Cc1cccc(O)c1)C(=O)N1C[Si](C)(C)C[C@H]1c1nc2ccc3cc(-c4ccc(-c5cnc([C@@H]6CCCN6C(=O)[C@@H](NC(=O)OC)C(C)C)[nH]5)cc4)ccc3c2[nH]1 [Compound 61] | 0.33 | > 1000 | 37
10 | COC(=O)N1CCC[C@H]1C(=O)N1C[Si](C)(C)C[C@H]1c1ncc(-c2ccc(-c3ccc4c(ccc5nc([C@@H]6CCCN6C(=O)[C@@H]6CCCN6C(=O)OC)[nH]c54)c3)cc2)[nH]1 [Compound 54] | > 1000 | > 1000 | > 1000
11 | COC(=O)N[C@H](C(=O)N1C[Si](C)(C)C[C@H]1c1nc2ccc3cc(-c4ccc(-c5cnc([C@@H]6C[C@H]7C[C@H]7N6C(=O)[C@@H](NC(=O)OC)C6CCOCC6)[nH]5)cc4)ccc3c2[nH]1)C1CCOCC1 [Compound 99] | 0.14 | 42 | 3.5
12 | CC[C@H](C)[C@H](NC(=O)OC)C(=O)N1C[Si](C)(C)C[C@H]1c1nc2ccc3cc(-c4ccc(-c5cnc([C@@H]6CCCN6C(=O)[C@@H](NC(=O)OC)C(C)C)[nH]5)cc4)ccc3c2[nH]1 [Compound 59] | 0.61 | > 1000 | 245
13 | COC(=O)N[C@H](C)C(=O)N1C[Si](C)(C)C[C@H]1c1ncc(-c2ccc(-c3ccc4c(ccc5nc([C@@H]6CCCN6C(=O)[C@@H](C)NC(=O)OC)[nH]c54)c3)cc2)[nH]1 [Compound 49] | 386 | > 1000 | > 1000
14 | CCN(CC)[C@@H](C(=O)N1CCC[C@H]1c1ncc(-c2ccc(-c3ccc4c(ccc5nc([C@@H]6C[Si](C)(C)CN6C(=O)[C@@H](c6ccccc6)N(CC)CC)[nH]c54)c3)cc2)[nH]1)c1ccccc1 [Compound 21] | 0.25 | > 100 | 0.39
15 | CC[C@H](NC(=O)OC)C(=O)N1C[Si](C)(C)C[C@H]1c1ncc(-c2ccc(-c3ccc4c(ccc5nc([C@@H]6CCCN6C(=O)[C@H](CC)NC(=O)OC)[nH]c54)c3)cc2)[nH]1 [Compound 44] | 0.3 | 302 | 171
16 | COC(=O)N[C@H](C(=O)N1C[Si](C)(C)C[C@H]1c1nc2ccc3cc(-c4ccc(-c5cnc([C@@H]6CCCN6C(=O)[C@@H](NC(=O)OC)[C@@H](C)O)[nH]5)cc4)ccc3c2[nH]1)C(C)C [Compound 87] | 0.67 | > 1000 | 81.7
17 | COC(=O)N[C@H](C(=O)N1C[Si](C)(C)C[C@H]1c1ncc(-c2ccc(-c3ccc4c(ccc5nc([C@@H]6CCCN6C(=O)[C@@H](NC(=O)OC)C6CC6)[nH]c54)c3)cc2)[nH]1)C1CC1 [Compound 51] | 0.51 | > 1000 | > 1000
18 | COC(=O)N[C@@H](C(=O)N1C[Si](C)(C)C[C@H]1c1ncc(-c2ccc(-c3ccc4c(ccc5nc([C@@H]6CCCN6C(=O)[C@H](NC(=O)OC)c6ccccc6)[nH]c54)c3)cc2)[nH]1)c1ccccc1 [Compound 53] | 7.27 | > 1000 | > 1000
19 | COC(=O)N[C@@H](Cn1ncnn1)C(=O)N1C[Si](C)(C)C[C@H]1c1nc2ccc3cc(-c4ccc(-c5cnc([C@@H]6CCCN6C(=O)[C@@H](NC(=O)OC)C(C)C)[nH]5)cc4)ccc3c2[nH]1 [Compound 62] | 0.22 | > 1000 | 91
20 | COC(=O)N[C@H](C(=O)N1C[Si](C)(C)C[C@H]1c1nc2ccc3cc(-c4ccc(-c5cnc([C@@H]6CCCN6C(=O)[C@@H](NC(=O)OC)C6CCCC6)[nH]5)cc4)ccc3c2[nH]1)C(C)C [Compound 85] | 0.52 | > 1000 | 330
21 | CCCC(NC(=O)OC)C(=O)N1C[Si](C)(C)C[C@H]1c1ncc(-c2ccc(-c3ccc4c(ccc5nc([C@@H]6CCCN6C(=O)[C@H](CCC)NC(=O)OC)[nH]c54)c3)cc2)[nH]1 (stereo partly drawn) [Compound 48] | 0.64 | 761 | 882
22 | COC(=O)N[C@H](C(=O)N1CCC[C@H]1c1ncc(-c2ccc(-c3ccc4c(ccc5nc([C@@H]6C[Si](C)(C)CN6C(=O)[C@H]6COCCN6C(=O)OC)[nH]c54)c3)cc2)[nH]1)C(C)C [Compound 63] | 5.1 | > 1000 | > 1000
23 | COC(=O)N[C@@H](Cc1cccc(O)c1)C(=O)N1C[Si](C)(C)C[C@H]1c1ncc(-c2ccc(-c3ccc4c(ccc5nc([C@@H]6CCCN6C(=O)[C@H](Cc6cccc(O)c6)NC(=O)OC)[nH]c54)c3)cc2)[nH]1 [Compound 37] | 2.52 | > 1000 | > 1000
24 | COC(=O)N[C@H](C(=O)N1C[Si](C)(C)C[C@H]1c1nc2ccc3cc(-c4ccc(-c5cnc([C@@H]6CCCN6C(=O)[C@@H](NC(=O)OC)C(C)(C)OC)[nH]5)cc4)ccc3c2[nH]1)C(C)C [Compound 86] | 0.77 | > 1000 | 389
